Assay [1] deals with islets from wild type C57BL/6 mice. Description: DNA fragmentation assay (sub-diploid DNA, flow cytometry). To be noted: for DNA fragmentation: wild-type islets. It is filed as cell-based. The protocol: Uniformly sized islets (excluding very large or necrotic islets) were handpicked into 3.5 cm Petri dishes containing 1.1 mL of complete CMRL. Islets were then cultured with the appropriate stimuli to cause DNA fragmentation. At the end of the culture period, non-attached cells and islets were transferred into polypropylene tubes and washed in PBS. Islets were then dispersed with trypsin (0.1 mg/mL bovine trypsin (Calbiochem) and 2 mmol/L EDTA in PBS) for 5 min at 37° C. Islets were mechanically dispersed using a pipette, washed in PBS, and allowed to recover in complete CMRL medium for 1 h at 37° C. in 5% CO2. Cells were then washed in PBS and resuspended in 250 μL of hypotonic buffer containing 50 mg/mL propidium iodide (Sigma-Aldrich), 0.1% sodium citrate, and 0.1% TritonX-100 which stains nuclear DNA. The cells were then analyzed on a FACSCalibur (Becton Dickinson, Franklin Lakes, N.J., USA) using the FL3 channel. Cells undergoing apoptosis were identified by their sub-diploid DNA content as previously described (Riccardi and Nicoletti, 2006).
A general note: A flow cytometer gives signals particle by particle.

The subject of assay [2] is islets from wild-type mice. Description: Cytochrome c release from mitochondria (flow cytometry). In kind it is cell-based. As to the method:
FIG. 1: Wild-type islets cultured in high concentrations of glucose or ribose undergo DNA fragmentation and mitochondrial release of cytochrome C, both indicative of apoptosis, and have a reduced ability to secrete insulin. (A) 200 islets from wild-type C57BL/6 mice were either cultured in low glucose medium (5.6 mM) (unt) or cultured in high glucose media (33.3 mM) for 6 days or high ribose medium (50 mM) for 4 days and DNA fragmentation was measured. Representative flow cytometry profiles are shown i). Data represent islets from 13-17 individual mice per group ii). Statistical significance; *p<0.001 compared with unt (one-way ANOVA). (B) 100 islets from wild-type mice were cultured under conditions mentioned above for 4 and 3 days respectively and cytochrome C release was measured. Representative flow cytometry profiles are shown i). Data represent islets from 4 individual mice per group. ii) Statistical significance; *p<0.001 ** p<0.05 compared with unt (one-way ANOVA). (C) wild-type islets were cultured in high concentrations of ribose (50 mM) for 2 days and insulin release was measured after glucose stimulation. Statistical significance; *p<0.01 compared with unt (one-way ANOVA). […]

Another assay has as its system bim. In words: Real-time qRT-PCR of islets, bim. In kind it is cell-based, mice. The following applies: for up-regulation of bim mRNA: islets exposed to high concentrations of glucose or ribose. As to the method: (§1) FIG. 7: Ribose induces expression of Puma and Bax in islets. Quantitative RT-PCR of wild-type islets cultured in control medium or medium containing 50 mM ribose, 33.3 mM glucose or 5 μM thapsigargin for 24 or 48 h. Relative RNA expression levels for (A) Puma (B) Bim and (C) Bax were calculated by normalizing to the signal for β-actin in each sample and comparison to islets cultured in control medium. Mean±SEM of 3-4 independent experiments is shown. Statistical significance *p<0.05, **p<0.01 compared with control (two-tailed paired t-test). RNA was prepared using the RNeasy Kit (Qiagen). First strand cDNA was prepared from 0.1-0.2 μg RNA using the High Capacity RNA-to-cDNA Master Mix (Applied Biosystems). Real-time PCR was performed using the ABI Prism 7900 (Applied Biosystems) and the Power SYBR Green PCR Master Mix (Applied Biosystems) in 15 μl reaction volumes. Data analyses were performed with the CT method using actin as an internal control. qRT-PCR was performed using the following forward and reverse primers (a kind gift from Drs DCS Huang and M Narita) (Table 1).

The next assay has as its system iNOS. In words: Western blotting for iNOS expression in islets. The following applies: islets cultured in high glucose (33.3 mM) in the presence of IFNγ. In kind it is cell-based, mice. As to the method:
(§2) FIG. 2: IL-1β or Fas are not required for glucose or ribose induced beta cell apoptosis. (A) 200 islets from wild-type, IL-1R^−/− and B6^lpr/lpr mice were cultured for 6 days in 5.6 mM low glucose medium (unt) or 33.3 mM D-glucose or for 4 days in 50 mM ribose. DNA fragmentation was measured by flow cytometry. (B) 100 wild-type islets were cultured for 7 days in 5.6 mM or 33.3 mM D-glucose with cytokines added in the last 4 days and iNOS expression, NO production and DNA fragmentation was measured. Representative Western blot for iNOS expression (β-actin used as loading control). (C) NO2 determination of culture supernatant (D) DNA fragmentation was measured by flow cytometry. (E) Wild-type islets were cultured in 50 mM ribose or cytokines for 2 days, 33.3 mM D-glucose for 4 days (solid lines) compared to islets cultured in 5.6 mM D-glucose (broken lines). Fas expression on β cells was analysed by FACS analysis. (F) Wild-type islets cultured for 7 days in 5.6 mM (−) or 33.3 mM (+) glucose with cytokines or FasL added in the last 4 days. The data represent the mean±S.E.M of three experiments. Islets were incubated for 4 days with cytokines and 33.3 mM glucose, transferred to microcentrifuge tubes and washed three times in PBS. […]
For orientation: A western blot detects proteins with antibodies after separation by electrophoresis.

Another assay relates to Fas. In words: Fas expression on islet beta cells by flow cytometry. It is filed as cell-based, mice. To be noted: high glucose (33.3 mM, 4 days) compared to untreated controls. As to the method: as §2, with “Islets cells” for “Islets”, “analysed” for “incubated”, “expression of Fas by flow cytometry as previously described (Thomas et al., 1999). Islets were dispersed into single cells as described above” for “4 days with cytokines”, “stained using standard procedures.” for “33.3 mM glucose, transferred to microcentrifuge tubes and washed three times in PBS.”

The test system of another assay is puma. Description: Real-time qRT-PCR of islets, puma. It is filed as cell-based, mice. As to the method: as §1
In general terms: Real-time PCR tracks product formation cycle by cycle.

The next assay relates to bax. In words: Real-time qRT-PCR of islets, bax. It is filed as cell-based, mice. The protocol: as §1
The next assay has as its system wild type islets. Description: Glucose-stimulated insulin secretion assay. In kind it is cell-based, mice. The following applies: wild type islets exposed to ribose (50 mM) for two days. As to the method:
Insulin secretion assays were performed as previously described (Thomas et al., 2002). Two hundred islets were cultured in complete CMRL and ribose for 2 days, then washed three times in Krebs-Ringer bicarbonate buffer (KRB; 25 mmol/l HEPES, 115 mmol/l NaCl, 24 mmol/l NaHCO3, 5 mmol/l MgCl2, 2.5 mmol/l CaCl2, pH 7.4) with 3 mmol/l glucose and 0.1% BSA. Groups of 20 islets in quadruplicate were incubated for 30 min in 200 μl KRB containing 3 mmol/l glucose under 5% CO2/95% air with shaking at 37° C., followed by a second incubation in 200 μl KRB containing either 3 or 20 mmol/l glucose. Buffer was sampled for insulin after 30 min using a mouse insulin ELISA kit (Linco Research, Mo., USA).

The next assay concerns bak. In words: Real-time qRT-PCR of islets, bak. In kind it is cell-based, mice. The following applies: 5 μM thapsigargin, data not shown. The protocol: as §1

Regarding `O=C[C@H](O)[C@@H](O)[C@H](O)[C@H](O)CO` [D-glucose], the DNA fragmentation result in [1] (33.3 mM D-glucose, 6 days, compared to low glucose media (5.6 mM)) is given as “modest but significant increase”. For the same compound, the “release of cytochrome c from the mitochondria” value in [2] (high glucose (33.3 mM), 4 days, compared to untreated islets) is “significant increase”. For the same compound, the “up-regulation of bim mRNA” value with bim was “no up-regulation”. In addition, the iNOS expression entry with iNOS was “no iNOS expression”. Also, the “Fas expression on islet cells” value in the assay with Fas was “slight but insignificant rise”.

Turning to `O=C[C@H](O)[C@H](O)[C@H](O)CO` [ribose, D-ribose], the DNA fragmentation entry in assay [1] (50 mM ribose, 4-day period, compared to high concentrations of glucose) is reported as “significantly more DNA fragmentation”. Moreover, the “release of cytochrome c from the mitochondria” value in [2] (high ribose (50 mM), 3 days, compared to high glucose) is listed as “more pronounced”. Also, the “increase in expression of puma” value in the assay on puma (50 mM ribose, 48 h) turned out to be 4 fold. Besides, the “increase in expression of bax” value in the assay on bax (50 mM ribose, 48 h) was found to be 4 fold. In addition, the “up-regulation of bim mRNA” value in the assay with bim was “no up-regulation”. The Bim expression result in the assay on bim (ribose incubation (50 mM)) is given as “remained unchanged”. Moreover, the “insulin secretory function after glucose stimulation” value in the assay on wild type islets is given as “significant loss”.

For the compound `C/C=C(/C)C(=O)O[C@H]1C(C)=C2[C@H]([C@@H]1OC(=O)CCCCCCC)[C@@](C)(OC(C)=O)C[C@H](OC(=O)CCC)[C@@]1(O)[C@H]2OC(=O)[C@@]1(C)O` [thapsigargin, reference compound], in the assay on puma (5 μM thapsigargin, 24 or 48 h), the “increase in expression of puma” value is on record as 2-7 fold. For the same compound, in the assay with bax (5 μM thapsigargin, 24 or 48 h), the “increase in expression of bax” value is reported as 2-7 fold. Besides, the “increase in expression of bak” value in the assay on bak was 2-7 fold. In addition, in the assay with bim (5 μM thapsigargin), the “increase in expression of bim” value is listed as “not”.

Regarding “z-Val-Ala-Aspfluoromethylketone [z-VAD.fmk, reference compound]”, in [1] (pan-caspase inhibitor used at 100 μmol/L), the “inhibition of ribose-induced islet cell DNA fragmentation” value was “significantly inhibited”.
